# Data from patent US20250339409A1, “USES OF PAN BET INHIBITORS” (VYNE THERAPEUTICS INC., priority 2021, published 2025).
# Test system: 92 target genes related to melanogenesis
# Assay: RHE vitiligo model: gene expression analysis (TaqMan low density array, RT-qPCR)
# Assay type: cell-based, human
# Parameters: key to FC of XPC gene expression / FC of GNAS gene expression / FC of ATP7A gene expression / FC of TYR gene expression / FC of RAB27A gene expression / FC of KITLG gene expression / FC of ADCY2 gene expression: fold change in expression by comparative Ct (ΔΔCt) method
# Method: At the end of the treatments, total RNAs is extracted from 3 epidermis per condition (n=3) using the Qiagen RNeasy kit (Qiagen; 74106). Epidermis is rinsed with cold PBS and lysed in the ad hoc buffer provided in the kit. Extraction is performed according to the supplier's recommendations. The collected RNAs is stored at −80° C.
# The RNA concentration is determined by spectrophotometric measurement (QIAxpert, Qiagen) and the RNA quality is analyzed by capillarity electrophoresis (Agilent Bioanalyzer 2100-Agilent RNA 6000 Nano Kit, 5067-1511). The integrity of the total RNA is assessed by visualization of intact ribosomal RNA bands. For the total RNA from higher eukaryotes, the size of the ribosomal bands should be 1.9 kb for the 18S-RNA and 4.7 kb for the 28S-RNA. The intensity of the band corresponding to the 28S RNA must be greater than the intensity of the band corresponding to the 18S-RNA (left profile, in image below). Small and diffuse bands representing low molecular weight RNAs (tRNA and 5S ribosomal RNA) may be present. Degradation of the RNA is apparent as a smearing of ribosomal RNA bands and high molecular weight background as shown below (right profile, in image below).
# Reverse transcription is performed with the high-capacity RNA-to-cDNA kit (Applied Biosystems; 438706) from total RNA according to the manufacturer's instructions. The cDNAs are then stored at −20° C. until use in polymerase chain reactions.
# The microfluidic TaqMan qPCR arrays (or TaqMan low density arrays) were designed by StratiCELL and manufactured on demand by Applied Biosystems. […]
# The TaqMan arrays are processed as described by the manufacturer's instructions (Micro Fluidic Card Getting Started Guide, Applied Biosystems). Briefly, cDNAs are mixed with a specific buffer (TaqMan Fast Advanced Master Mix, 4444557, Applied Biosystems) before being injected into the arrays and dispersed into the wells by centrifugation. Arrays are sealed and qPCRs are run using the Quantstudio7 Real-Time PCR System (Applied Biosystems) and its software (QuantStudio real time PCR Software v1.3. software, Applied Biosystems).
# Threshold cycles (Ct) are obtained for each gene. Results files are exported from the qPCR device and analyzed using the DataAssist Software (v3.00, Applied Biosystems) designed to perform relative quantification of gene expression using the comparative Ct (ΔΔCt) method, through a combination of statistical analysis.
# The data obtained for the conditions treated with the formulations is compared to the untreated condition or to the condition treated with the vehicle. The effects of the cytokine cocktail stimulation are analyzed as well by comparison of the data obtained for the untreated control (unstimulated) to the data obtained for the stimulated untreated control. The Ct values are normalized to the mean Ct of 3 housekeeping genes present on the array. The maximum Ct cut-off value was fixed at 36 cycles meaning that Ct values above 36 are not considered in the analysis. […]
# [1] = Stimulated + BETi1 0.001% vs Stimulated + BETi1 vehicle, results after correction
# [2] = Stimulated + BETi1 0.001% vs Stimulated + BETi1 vehicle, results after correction, inconclusive, Ct of some replicates above 36
# [3] = Stimulated + BETi1 0.001% vs Stimulated + BETi1 vehicle, results as originally presented (transcription error)
# [4] = Stimulated + BETi1 0.001% vs Stimulated + BETi1 vehicle, results as originally presented (transcription error), inconclusive, Ct of some replicates above 36
# [5] = Stimulated + BETi1 1% vs Stimulated + BETi1 vehicle, results after correction
# [6] = Stimulated + BETi1 1% vs Stimulated + BETi1 vehicle, results after correction, inconclusive, Ct of some replicates above 36
# [7] = Stimulated + BETi1 1% vs Stimulated + BETi1 vehicle, results as originally presented (transcription error for some genes)
# [8] = Stimulated + BETi1 1% vs Stimulated + BETi1 vehicle, results as originally presented (transcription error for some genes), inconclusive, Ct of some replicates above 36
# [9] = Stimulated RHE treated with BETi1 at 0.01% vs BETi1 vehicle
# [10] = Stimulated RHE treated with BETi1 at 0.1% vs BETi1 vehicle
# [11] = stimulated RHE, vs stimulated + vehicle
# [12] = stimulated RHE, vs stimulated + vehicle, listed as BETi1 0.1%
# [13] = stimulated RHE, vs stimulated + vehicle, listed as BETi1 1%
smiles,measurement,setting,value
Cn1cc(-c2cccc(O)c2Oc2ccccc2)c2cc[nH]c2c1=O [BETi1],"WNT signaling pathway upregulation, increase","1% concentration, relative to vehicle / stimulated control",10 fold
same,FC of AP1M1 gene expression,[1],0.7447
same,FC of APAF1 gene expression,[1],1.5797
same,FC of BCL2 gene expression,[1],0.7462
same,FC of HPS4 gene expression,[1],0.6711
same,FC of POMC gene expression,[1],0.5586
same,FC of ASIP gene expression,[2],0.7104
same,FC of CALML6 gene expression,[2],0.7104
same,FC of GNAO1 gene expression,[2],0.7104
same,FC of AP1M1 gene expression,[3],0.6303
same,FC of APAF1 gene expression,[3],3.5532
same,FC of BCL2 gene expression,[3],1.3312
same,FC of HPS4 gene expression,[3],0.4147
same,FC of POMC gene expression,[3],0.3574
same,FC of ASIP gene expression,[4],0.6303
same,FC of GNAO1 gene expression,[4],0.6303
same,FC of AIM1 gene expression,[5],0.4502
same,FC of AP1S1 gene expression,[5],0.6116
same,FC of ATP2A2 gene expression,[5],0.2632
same,FC of ATP7A gene expression,[5],0.4094
same,FC of BAD gene expression,[5],0.2547
same,FC of BCL2 gene expression,[5],0.5772
same,FC of CREBBP gene expression,[5],0.3195
same,FC of DVL1 gene expression,[5],0.4492
same,FC of EDN1 gene expression,[5],0.0395
same,FC of EDNRB gene expression,[5],0.1544
same,FC of GADD45A gene expression,[5],0.2375
same,FC of GNAI1 gene expression,[5],0.3672
same,FC of GNAS gene expression,[5],0.4273
same,FC of HPS1 gene expression,[5],0.5127
same,FC of HPS4 gene expression,[5],0.3088
same,FC of IL1A gene expression,[5],0.0124
same,FC of IL1B gene expression,[5],0.0208
same,FC of KIT gene expression,[5],0.6404
same,FC of MAPK14 gene expression,[5],0.3927
same,FC of MLPH gene expression,[5],0.3039
same,FC of MYO5A gene expression,[5],0.4524
same,FC of OCA2 gene expression,[5],0.293
same,FC of PCNA gene expression,[5],7.0134
same,FC of POMC gene expression,[5],0.1039
same,FC of PTGER3 gene expression,[5],0.4259
same,FC of RAB3A gene expression,[5],14.5685
same,FC of RAB27A gene expression,[5],0.2763
same,FC of RAB32 gene expression,[5],0.1471
same,FC of RAB38 gene expression,[5],0.3579
same,FC of SLC24A5 gene expression,[5],0.1051
same,FC of SNAP25 gene expression,[5],0.2366
same,FC of SOX9 gene expression,[5],0.0882
same,FC of SOX10 gene expression,[5],0.4034
same,FC of STX6 gene expression,[5],0.3683
same,FC of TYR gene expression,[5],0.405
same,FC of USF1 gene expression,[5],0.497
same,FC of WNT16 gene expression,[5],10.0801
same,FC of XPC gene expression,[5],1.6569
same,FC of ASIP gene expression,[6],0.4753
same,FC of CALML6 gene expression,[6],0.4753
same,FC of CAMK2A gene expression,[6],0.4753
same,FC of GNAO1 gene expression,[6],0.4753
same,FC of PTGER1 gene expression,[6],0.4753
same,FC of AIM1 gene expression,[7],0.4753
same,FC of AP1S1 gene expression,[7],0.727
same,FC of ATP2A2 gene expression,[7],0.293
same,FC of ATP7A gene expression,[7],0.4273
same,FC of BAD gene expression,[7],0.2763
same,FC of BCL2 gene expression,[7],0.6404
same,FC of CREBBP gene expression,[7],0.3672
same,FC of DVL1 gene expression,[7],0.4524
same,FC of EDN1 gene expression,[7],0.1039
same,FC of EDNRB gene expression,[7],0.2375
same,FC of GADD45A gene expression,[7],0.2632
same,FC of GNAI1 gene expression,[7],0.3927
same,FC of GNAS gene expression,[7],0.4502
same,FC of HPS1 gene expression,[7],0.6116
same,FC of HPS4 gene expression,[7],0.3579
same,FC of IL1A gene expression,[7],0.0395
same,FC of IL1B gene expression,[7],0.0882
same,FC of KIT gene expression,[7],1.6569
same,FC of MAPK14 gene expression,[7],0.405
same,FC of MLPH gene expression,[7],0.3195
same,FC of MYO5A gene expression,[7],0.4753
same,FC of OCA2 gene expression,[7],0.3088
same,FC of PCNA gene expression,[7],7.0134
same,FC of POMC gene expression,[7],0.1471
same,FC of PTGER3 gene expression,[7],0.4492
same,FC of RAB3A gene expression,[7],14.5685
same,FC of RAB27A gene expression,[7],0.3039
same,FC of RAB32 gene expression,[7],0.2366
same,FC of RAB38 gene expression,[7],0.3683
same,FC of SLC24A5 gene expression,[7],0.1544
same,FC of SNAP25 gene expression,[7],0.2547
same,FC of SOX9 gene expression,[7],0.1051
same,FC of SOX10 gene expression,[7],0.4094
same,FC of STX6 gene expression,[7],0.4034
same,FC of TYR gene expression,[7],0.4259
same,FC of USF1 gene expression,[7],0.5772
same,FC of WNT16 gene expression,[7],10.0801
same,FC of XPC gene expression,[7],1.8367
same,FC of ASIP gene expression,[8],0.5127
same,FC of CALML6 gene expression,[8],0.497
same,FC of CAMK2A gene expression,[8],0.4753
same,FC of GNAO1 gene expression,[8],0.4753
same,FC of PTGER1 gene expression,[8],0.4753
same,FC of AP1S1 gene expression,[9],1.3312
same,FC of ASIP gene expression,[9],0.6303
same,FC of CALML6 gene expression,[9],0.6303
same,FC of CAMK2A gene expression,[9],0.6303
same,FC of GADD45A gene expression,[9],0.3574
same,FC of GNAO1 gene expression,[9],0.6303
same,FC of POMC gene expression,[9],0.4147
same,FC of RAB3A gene expression,[9],3.5532
same,FC of ADCY2 gene expression,[10],0.1137
same,FC of AP1M1 gene expression,[10],0.6311
same,FC of ATP2A2 gene expression,[10],0.2769
same,FC of BAD gene expression,[10],0.2735
same,FC of CALML6 gene expression,[10],0.5429
same,FC of CAMK2A gene expression,[10],0.5043
same,FC of EDN1 gene expression,[10],0.0413
same,FC of EDNRB gene expression,[10],0.2737
same,FC of GADD45A gene expression,[10],0.1803
same,FC of GNAI1 gene expression,[10],0.5815
same,FC of HPS4 gene expression,[10],0.4224
same,FC of IL1A gene expression,[10],0.0454
same,FC of IL1B gene expression,[10],0.0727
same,FC of KITLG gene expression,[10],1.8415
same,FC of MAPK14 gene expression,[10],0.4724
same,FC of MLPH gene expression,[10],0.355
same,FC of MYO5A gene expression,[10],0.5462
same,FC of PCNA gene expression,[10],3.2615
same,FC of POMC gene expression,[10],0.1665
same,FC of PPIA gene expression,[10],1.6969
same,FC of PTGER3 gene expression,[10],0.4799
same,FC of RAB3A gene expression,[10],10.8195
same,FC of RAB32 gene expression,[10],0.2378
same,FC of RAB38 gene expression,[10],0.5643
same,FC of SLC24A5 gene expression,[10],0.272
same,FC of SOX9 gene expression,[10],0.1155
same,FC of SOX10 gene expression,[10],0.4196
same,FC of STX6 gene expression,[10],0.4214
same,FC of WNT16 gene expression,[10],8.7922
same,RQ (fold change) AP1S1,[11],1.3312
same,RQ (fold change) APAF1,[11],1.5797
same,RQ (fold change) HSP4,[11],0.6711
same,RQ (fold change) KITLG,[11],1.8415
same,RQ (fold change) POMC,[11],0.5586
same,RQ (fold change) PPIA,[11],1.6969
same,RQ (fold change) XPC,[11],1.6569
same,RQ (fold change) RAB3A,"stimulated RHE, vs stimulated + vehicle, listed as BETi1 0.01%",3.5532
same,RQ (fold change) EDN1,[12],0.0413
same,RQ (fold change) IL1A,[12],0.0454
same,RQ (fold change) IL1B,[12],0.0727
same,RQ (fold change) PCNA,[12],3.2615
same,RQ (fold change) RAB3A,[12],10.8195
same,RQ (fold change) SOX9,[12],0.1155
same,RQ (fold change) WNT16,[12],8.7922
same,RQ (fold change) EDN1,[13],0.0395
same,RQ (fold change) IL1A,[13],0.0124
same,RQ (fold change) IL1B,[13],0.0208
same,RQ (fold change) PCNA,[13],7.0134
same,RQ (fold change) RAB3A,[13],14.5685
same,RQ (fold change) SOX9,[13],0.0882
same,RQ (fold change) WNT16,[13],10.0801
